From patent US20180296456A1, “Decapeptide-12 Modulation of Sirtuin Gene Expression in Epidermal Keratinocyte Progenitors” (Escape Therapeutics, Inc., priority 2017, published 2018)
Peptide text beside a SMILES is read from it.

Key:
[1] = Trypan blue cell viability, 7 days, melanoblasts; format: cell-based; settings: human, relative to control, read-out: melanoblast viability after 7 days
Method: (§1) The effect of each of the decapeptides upon cell viability was also tested. In particular, cells were incubated with the decapeptide at various concentrations and then counted for viability relative to the control (untreated cells) using trypan blue. Cytotoxicity was measured according to the following formula:
(§2) [1−(# of cells in control−# of live cells in test sample)/# of cells in control]×100 percent.

[2] = MTT cell proliferation assay, melanoblasts; format: cell-based, human; settings: human, MTT, 72 h, read-out: melanoblast proliferation rate after 72 hours
Method: Proliferation rates for three human cell lines (epidermal progenitors, melanoblasts, and fibroblasts) were determined using a TACS® MTT Cell Proliferation Kit. Cells were seeded at 2.5×10^4/well in 96-well plates in a humidified atmosphere with 5 percent CO2 at 37 degrees Celsius. Twenty-four hours later, the decapeptides were added to the corresponding wells at varying concentrations and incubated for 72 hours. The remainder of the procedure was performed following the manufacturer's protocol.

[3] = system: SIRT3; assay: SIRT3 transcription, semi-quantitative RT-PCR in human epidermal progenitors; format: cell-based; settings: 72 h
Method: Human neonatal epidermal progenitors (Thermo Fisher Scientific, NY) were seeded in 6-well plates at a density of 2×10^5 cells/well. Each well received 2 ml of Epilife media containing 60 μM calcium chloride (Thermo Fisher Scientific, NY). Plates were incubated in a humidified chamber at 37 degrees Celsius and 5 percent CO2. Twenty-four hours later, cells were treated with various concentrations of oxyresveratrol or decapeptide-12 dissolved in PBS containing 5 percent DMSO. Control wells received vehicle only (5 percent DMSO and PBS). Final concentration of DMSO in each well was 0.05 percent.
After a 72 hour incubation period, cells were trypsinized and total RNA extracted, using RNeasy kit (Qiagen, Valencia, Calif.) according to the manufacturer's protocol.
RNA concentration was determined using nanodrop (Thermo fisher scientific, NY). Two μg of total RNA were used to synthesize cDNA using oligo dT primers and TaqMan reverse transcription reagents (Thermo fisher scientific, NY). The reaction was carried out in DNA Engine Peltier Thermal Cycler (Bio-Rad, Hercules, Calif.). The annealing temperature was 25 degrees Celsius for 10 minutes, followed by first strand synthesis at 48 degrees Celsius for 1 hour, and heat inactivation at 95 degrees Celsius for 5 minutes.
The SIRT1-7 primers (table 1) were designed using Primer3. The semi-quantitative PCR reactions were performed on a DNA Engine Peltier Thermo Cycler (Bio-Rad, Hercules, Calif.). PCR was carried under the following conditions: denaturation at 94 degrees Celsius for 2 minutes and primer extension at 54 degrees Celsius for 30 seconds in 34 cycles for SIRT 1-7 and the housekeeping gene 18S.
Samples were run and resolved on a 1.5 percent agarose gel containing 0.5 μg/ml of ethidium bromide and imaged using the FluorChem HD2 Imaging System (Protein simple, San Jose, Calif.). Densitometry analysis was carried out using the AlphaEase FC software (Protein simple, San Jose, Calif.). Intensity ratios were calculated as the intensity value for each gene divided by the intensity value of the internal control gene 18S.
The effect of the decapeptides P4, P4A, P4B, and P4C upon the transcription levels of sirtuins 1-7 was evaluated. Table 4 summarizes transcription levels for all four decapeptides with the corresponding genes, at tested concentrations of: 10, 30, 50, 100, and 300 (all in μM).

[4] = Trypan blue cell viability, 7 days, epidermal progenitors; format: cell-based; settings: human, relative to control, read-out: epidermal progenitor viability after 7 days
Method: as §1, §2

Work on `CCCCCCCCCCCCCCCC(=O)N[C@@H](Cc1ccc(O)cc1)C(=O)N[C@@H](CCCNC(=N)N)C(=O)N[C@@H](CO)C(=O)N[C@@H](CCCNC(=N)N)C(=O)N[C@@H](CCCCN)C(=O)N[C@H](Cc1ccc(O)cc1)C(=O)N[C@@H](CO)C(=O)N[C@@H](CO)C(=O)N[C@@H](Cc1c[nH]c2ccccc12)C(=O)N[C@@H](Cc1ccc(O)cc1)C(N)=O` [P4B, Palmitoyl-YRSRK[*Y]SSWY-amide] (HELM PEPTIDE1{[CCCCCCCCCCCCCCCC(=O)[*:2]].Y.R.S.R.K.[dY].S.S.W.Y.[am]}$$$$V2.0) yielded a viability at 168 h, 3 µM ([1]; 3 μM) of 100%, a viability at 168 h, 10 µM ([1]; 10 μM) of 98.5 ± 1% and a viability at 168 h, 30 µM ([1]; 30 μM) of 97.8 ± 3%. The viability at 168 h, 50 µM ([1]; 50 μM) was 97.2 ± 2%, the viability at 168 h, 100 µM ([1]; 100 μM) was 96.3 ± 2% and the viability at 168 h, 300 µM ([1]; 300 μM) was 95.6 ± 2%. It also gave a viability at 168 h, 500 µM ([1]; 500 μM) of 94.6 ± 2%, a viability at 168 h, 1000 µM ([1]; 1000 μM) of 93.8 ± 2% and a viability at 72 h, 3 µM ([2]; 3 μM) of 100%. For the same compound, the viability at 72 h, 10 µM ([2]; 10 μM) was 100%, the viability at 72 h, 30 µM ([2]; 30 μM) was 99 ± 1% and the viability at 72 h, 50 µM ([2]; 50 μM) was 98 ± 1%. The viability at 72 h, 100 µM ([2]; 100 μM) was 97 ± 2%, the viability at 72 h, 300 µM ([2]; 300 μM) was 96 ± 2% and the viability at 72 h, 500 µM ([2]; 500 μM) was 95 ± 2%. For the same compound, the viability at 72 h, 1000 µM ([2]; 1000 μM) was 94 ± 2%, the “SIRT3 transcription increase relative to control” value ([3]; 10 μM) was 22 ± 3% and the “SIRT3 transcription increase relative to control” value ([3]; 30 μM) was 23 ± 2%. For the same compound, the “SIRT3 transcription increase relative to control” value ([3]; 50 μM) was 28 ± 5%, the “SIRT3 transcription increase relative to control” value ([3]; 100 μM) was 78 ± 10% and the “SIRT3 transcription increase relative to control” value ([3]; 300 μM) was 142 ± 5%. The viability at 168 h, 3 µM ([4]; 3 μM) was 100%, the viability at 168 h, 10 µM ([4]; 10 μM) was 99 ± 1% and the viability at 168 h, 30 µM ([4]; 30 μM) was 98.2 ± 1%. The viability at 168 h, 50 µM ([4]; 50 μM) was 98 ± 1%, the viability at 168 h, 100 µM ([4]; 100 μM) was 97 ± 1% and the viability at 168 h, 300 µM ([4]; 300 μM) was 96.5 ± 2%. It also gave a viability at 168 h, 500 µM ([4]; 500 μM) of 95.5 ± 2% and a viability at 168 h, 1000 µM ([4]; 1000 μM) of 94.5 ± 2%.
